The values below come from article PMC3466219 (PLoS ONE, 2012).

The structures appear in SMILES notation. Values joined by “and” are separate entries in the source; they are usually repeats but may differ in a detail not shown here. Equal values may be shown once. Read-outs that look alike come from different tables or passages of the source.

Experiment [1] has as its system Tip60 levels in LNCaP cells. The experiment is classed as cell-based. The conditions noted are these: increasing concentrations, 24 hours, Western blot. The source says:
Representative blots are shown for duplicate experiments.
(A western blot detects proteins with antibodies after separation by electrophoresis.)

For experiment [2], the system named is acetylated histone H4K16, H3K14 and H4K8 in LNCaP cells. The experiment can be described thus: Western blotting of histone acetylation in LNCaP cells. The settings on record: Western blot.
The next experiment deals with Tip60 (Homo sapiens, UniProt Q92993). In words: In vitro HAT assay, Tip60. The settings on record: for inhibition at 100 µM: read-out: Tip60 % inhibition at 100 µM; for Tip60 inhibitory activity (in words): in vitro HAT assay.
Chain of Tip60 (Q92993 whole entry): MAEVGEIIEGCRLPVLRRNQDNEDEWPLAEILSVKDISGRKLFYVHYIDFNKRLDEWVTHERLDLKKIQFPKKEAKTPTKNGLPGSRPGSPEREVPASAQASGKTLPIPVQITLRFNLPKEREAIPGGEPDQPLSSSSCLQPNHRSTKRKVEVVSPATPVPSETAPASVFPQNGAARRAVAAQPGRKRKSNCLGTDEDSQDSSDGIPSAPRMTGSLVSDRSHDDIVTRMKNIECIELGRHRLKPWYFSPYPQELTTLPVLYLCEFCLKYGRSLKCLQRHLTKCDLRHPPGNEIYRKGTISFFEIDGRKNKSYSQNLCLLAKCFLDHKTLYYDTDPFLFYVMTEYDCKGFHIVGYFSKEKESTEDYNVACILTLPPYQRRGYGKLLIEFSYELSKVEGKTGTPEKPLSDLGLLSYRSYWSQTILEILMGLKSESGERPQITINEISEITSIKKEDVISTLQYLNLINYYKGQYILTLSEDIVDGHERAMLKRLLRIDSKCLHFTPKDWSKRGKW
For another experiment, the target named is T1, PCAF (Homo sapiens, UniProt Q92831).
T1 construct: GST; made in house; host or cells: XA90 Escherichia coli
T1 sequence (Q92831 whole entry, species assumed): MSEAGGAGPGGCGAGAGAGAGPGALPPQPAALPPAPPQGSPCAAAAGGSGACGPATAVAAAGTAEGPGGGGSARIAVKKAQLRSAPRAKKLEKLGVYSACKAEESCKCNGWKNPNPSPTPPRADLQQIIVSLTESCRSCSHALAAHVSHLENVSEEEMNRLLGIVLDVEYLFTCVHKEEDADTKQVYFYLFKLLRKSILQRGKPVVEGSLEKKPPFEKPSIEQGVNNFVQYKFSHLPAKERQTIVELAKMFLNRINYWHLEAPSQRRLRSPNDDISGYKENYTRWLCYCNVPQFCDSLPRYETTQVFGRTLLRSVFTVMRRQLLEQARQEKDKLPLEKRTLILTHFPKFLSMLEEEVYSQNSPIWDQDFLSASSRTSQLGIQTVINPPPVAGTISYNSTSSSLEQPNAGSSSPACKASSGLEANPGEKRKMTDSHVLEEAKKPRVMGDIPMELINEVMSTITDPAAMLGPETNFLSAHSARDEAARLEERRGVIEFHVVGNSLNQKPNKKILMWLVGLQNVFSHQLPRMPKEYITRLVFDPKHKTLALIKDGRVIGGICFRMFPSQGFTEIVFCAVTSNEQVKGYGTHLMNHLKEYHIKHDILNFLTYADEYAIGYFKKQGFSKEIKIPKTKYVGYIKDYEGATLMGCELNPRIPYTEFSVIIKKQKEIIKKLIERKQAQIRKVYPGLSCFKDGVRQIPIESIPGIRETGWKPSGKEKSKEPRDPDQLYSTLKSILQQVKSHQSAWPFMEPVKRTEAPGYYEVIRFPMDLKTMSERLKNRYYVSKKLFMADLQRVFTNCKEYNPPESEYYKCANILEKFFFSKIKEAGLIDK
In words: In vitro HAT assay, PCAF. Type of experiment: biochemical. The settings on record: individual IC50 values. Here is the method:
(§1) Assays were performed in quadruplicate.
(§2) Purification of recombinant HAT enzymes (GST-tagged)- Expression constructs, pGEX-p300 and pGEX-PCAF, obtained from Dr Andrew Bannister (Cambridge Cancer Centre, UK), were transformed into XA90 Escherichia coli cells. A single colony was selected and grown to an OD 0.5 IPTG (1 mM) induction was carried out for 4 hours then cell pellets were collected, lysed, and sonicated. Supernatants were then passed through glutathione Sepharose 4B (GE Healthcare) and purified protein was eluted with 50 mM Tris-HCl, 10 mM reduced glutathione, pH 8. Eluted fractions were tested for enzymatic activity by HAT assay.

The target in the next experiment is T2, p300 (Homo sapiens, UniProt Q09472).
T2 sequence (Q09472 1287-1663 limits assumed): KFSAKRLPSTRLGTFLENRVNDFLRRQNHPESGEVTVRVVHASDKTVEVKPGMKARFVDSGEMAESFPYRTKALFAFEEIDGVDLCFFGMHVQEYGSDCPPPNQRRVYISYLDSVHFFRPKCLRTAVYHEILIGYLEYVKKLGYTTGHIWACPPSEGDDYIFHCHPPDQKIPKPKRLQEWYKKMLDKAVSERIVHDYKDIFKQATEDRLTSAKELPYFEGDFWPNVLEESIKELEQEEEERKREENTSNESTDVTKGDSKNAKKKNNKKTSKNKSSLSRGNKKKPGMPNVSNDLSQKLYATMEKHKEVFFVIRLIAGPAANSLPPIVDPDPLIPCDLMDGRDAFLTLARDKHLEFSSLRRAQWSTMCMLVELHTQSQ
The experiment can be described thus: In vitro HAT assay, p300. The experiment is classed as biochemical. The settings on record: individual IC50 values. As to the method:
as §1, §2

In the next experiment the target is GCN5 (Homo sapiens, UniProt Q92830). The experiment can be described thus: In vitro HAT assay, GCN5. Type of experiment: biochemical. Here is the method:
as §1

Chain of GCN5 (Q92830 whole entry, species assumed): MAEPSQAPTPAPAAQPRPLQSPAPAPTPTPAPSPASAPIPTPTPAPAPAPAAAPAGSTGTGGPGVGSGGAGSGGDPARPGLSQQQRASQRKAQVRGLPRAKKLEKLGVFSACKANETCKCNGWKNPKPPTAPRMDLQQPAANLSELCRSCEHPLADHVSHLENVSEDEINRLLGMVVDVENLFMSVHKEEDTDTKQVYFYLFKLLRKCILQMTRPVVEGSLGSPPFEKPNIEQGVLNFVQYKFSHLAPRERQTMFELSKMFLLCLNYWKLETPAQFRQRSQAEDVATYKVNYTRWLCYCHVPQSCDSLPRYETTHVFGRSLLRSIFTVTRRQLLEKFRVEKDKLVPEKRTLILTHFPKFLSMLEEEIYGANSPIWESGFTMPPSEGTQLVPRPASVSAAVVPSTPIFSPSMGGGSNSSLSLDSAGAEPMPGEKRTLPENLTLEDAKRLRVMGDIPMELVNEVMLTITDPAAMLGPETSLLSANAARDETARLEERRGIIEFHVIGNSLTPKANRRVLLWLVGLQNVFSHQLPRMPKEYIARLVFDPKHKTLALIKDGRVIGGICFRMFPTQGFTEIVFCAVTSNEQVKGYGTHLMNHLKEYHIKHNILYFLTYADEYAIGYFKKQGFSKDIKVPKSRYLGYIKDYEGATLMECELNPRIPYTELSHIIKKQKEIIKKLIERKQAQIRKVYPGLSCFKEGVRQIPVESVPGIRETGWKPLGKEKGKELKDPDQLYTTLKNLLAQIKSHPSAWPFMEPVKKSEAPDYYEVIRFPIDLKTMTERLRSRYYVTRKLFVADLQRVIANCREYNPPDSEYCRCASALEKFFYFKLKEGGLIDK

Take `c1cc(CCc2ccncc2)ccn1` [1,2-bis(4-pyridyl)ethane]: in experiment [1], the Tip60 levels entry was “unaffected”. In experiment [2] (increasing concentrations for 2 hours, then TSA 2 µM for a further 4 hours), the “levels of acetylated histone H4K16, H3K14 and H4K8” value is “did not affect”.

As a reminder, the inhibition is the drop in the measured response relative to a control, in per cent. Take `c1ccc2sc(SSc3nc4ccccc4s3)nc2c1` [2,2′-Dithio(bis)benzothiazole]: at Tip60, the inhibition at 100 µM was determined as 25%.

What is called IC50 is the concentration that gives 50% inhibition. Turning to `c1ccc(SSc2ccccn2)nc1` [2,2′-Dithiodipyridine], the half-inhibitory concentration (IC50) on Tip60 (Tip60 IC50, in vitro HAT assay, 3H acetyl-CoA, histones as substrates, individual IC50 values) was 62 µM and 87 µM.

On to `Cc1ccsc1Br` [2-Bromo-3-methylthiophene], for which, on Tip60, the IC50 was above 100 µM and the “Tip60 inhibitory activity (in words)” value was “inactive”.

For `c1cc(SSc2ccncc2)ccn1` [4,4′-Dithiodipyridine], the IC50 against Tip60 was found to be 48 µM.

Take `Cc1cnsc1Br` [Compound 1, 4-Methyl-5-bromoisothiazole]: at Tip60, the “Tip60 inhibitory activity (in words)” value is “inactive” and the inhibition at 100 µM turned out to be 14%.

Take `Cc1cnsc1SC#N` [Compound 4, 4-Methyl-5-thiocyanatoisothiazole]: at Tip60, the inhibition at 100 µM turned out to be 46%.

For `Cc1cnsc1SSc1sncc1C` [Compound 5, 1,2-Bis(4-methylisothiazol-5-yl)disulfane], the IC50 was 33 µM and 25 µM on PCAF; 58 µM and 43 µM on p300; above 100 µM at GCN5; 4 µM against Tip60.

`N#CSc1ccns1` [Compound 6, 5-Thiocyanatoisothiazole]: the inhibition at 100 µM on Tip60 stood at 27%.

As to `Cc1cnsc1` [Compound 11, 4-Methylisothiazole], the inhibition at 100 µM on Tip60 amounted to 22%.

Take `c1ccc(SSc2ccccc2)cc1` [Diphenyl disulphide]: the inhibition at 100 µM at Tip60 was 4%.

On to `CC(/C=C/C(=O)NO)=C\[C@@H](C)C(=O)c1ccc(N(C)C)cc1` [TSA, trichostatin A], for which the “acetylation at H4K8, H4K16 and H3K14” value in experiment [2] (TSA alone 2 µM, 6 hours) was “acetylation was increased”.
